Type in all cases: cell-based, mouse
In assay [1] the test system is α7 integrin (LacZ reporter in α7βgal+/− myoblasts). As to the kind of experiment: Myoblast α7+/LacZ integrin FDG assay (Burkin assay in myoblasts, 96-well). Conditions: α7+/LacZ myoblasts, 96-well.
For assay [2], the system named is α7 integrin (LacZ reporter in α7+/LacZ myotubes). Briefly: Myotube α7 integrin FDG assay (Burkin assay in myotubes, 96-well). The conditions noted are these: myotubes.
The subject of assay [3] is β-galactosidase in CMV-LacZ C2C12 myotubes. Briefly: CMV-LacZ secondary screen in C2C12 myotubes (β-Gal stabilizing assay). Conditions: for CMV-LACZ in Myotubes, signal relative to DMSO: C2C12 CMV-LacZ myotubes, fold relative to DMSO; for CMV-LACZ in Myotubes (β-galactosidase activity relative to DMSO): CMV-LacZ C2C12 myotubes, 96-well format. The essentials:
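First, C2C12 myoblasts were transfected with a linearized CMV-LACZ vector and clonal lines selected by FDG β-gal assay. Then cells were exposed to compounds at 0.5, 1, 5, 10, 20 and 40 μM in 96-well format, two replicates each, and β-gal measured.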

The structures appear in SMILES notation.

Consider `CCc1c(C2(O)CCCCC2)[nH]c2ncccc12` [MLS002402866-01], for which the “Burkin Assay in Myoblasts, value relative to DMSO” value in assay [1] (0.5 uM) was 1.037; in assay [1] (1 uM), 1.1052; in assay [1] (5 uM) it was 0.9113; in assay [1] (10 uM), 0.9376; in assay [1] (20 uM) it was 0.8943; in assay [1] (40 uM), 0.7689. Besides, the “Burkin Assay in Myotubes (signal relative to DMSO)” value amounted to 1.09 in assay [2] (0.5 uM); 1.258 in assay [2] (1 uM); 1.181 in assay [2] (5 uM); 1 in assay [2] (10 uM); 1.075 in assay [2] (20 uM); 0.9237 in assay [2] (40 uM). Moreover, the “CMV-LACZ in Myotubes, signal relative to DMSO” value in assay [3] (5 uM) is reported as 0.8739; in assay [3] (10 uM), 0.7966; in assay [3] (20 uM), 0.832; in assay [3] (40 uM) it was 0.7307.
On to `CNc1cc([N+](=O)[O-])ccc1OCc1ccccc1` [MLS000737204-01], for which the “Burkin Assay in Myoblasts, signal relative to DMSO” value in assay [1] (0.5 uM) is 0.9011; in assay [1] (1 uM), 0.9816; in assay [1] (5 uM), 0.9164; in assay [1] (10 uM), 0.9336; in assay [1] (20 uM) it was 0.8731; in assay [1] (40 uM) it was 0.7472. The “Burkin Assay in Myotubes, α7 integrin LacZ reporter signal relative to DMSO” value in assay [2] (0.5 uM) worked out at 1.043; in assay [2] (1 uM) it was 1.173; in assay [2] (5 uM), 1.0331; in assay [2] (10 uM) it was 1.12; in assay [2] (20 uM) it was 0.8815; in assay [2] (40 uM), 0.6682. The “CMV-LACZ in Myotubes, signal relative to DMSO” value in assay [3] (5 uM) was determined as 1.029; in assay [3] (10 uM), 0.8068; in assay [3] (20 uM), 0.5772; in assay [3] (40 uM) it was 0.3807.
On to `CCNC(=O)CSc1nc(-c2ccc(F)cc2)cs1` [MLS000772194-01], for which the “Burkin Assay in Myoblasts, value relative to DMSO” value was 1.096 in assay [1] (0.5 uM); 1.059 in assay [1] (1 uM); 1.055 in assay [1] (5 uM); 1.082 in assay [1] (10 uM); 1.098 in assay [1] (20 uM); 1.149 in assay [1] (40 uM). Further, the “Burkin Assay in Myotubes (signal relative to DMSO)” value in assay [2] (0.5 uM) worked out at 0.9782; in assay [2] (1 uM), 0.9192; in assay [2] (5 uM), 0.9654; in assay [2] (10 uM), 1.072; in assay [2] (20 uM) it was 0.9904; in assay [2] (40 uM), 0.7651. Besides, the “CMV-LACZ in Myotubes, signal relative to DMSO” value in assay [3] (5 uM) amounted to 1.068; in assay [3] (10 uM), 0.9234; in assay [3] (20 uM), 1.056; in assay [3] (40 uM), 0.9968.
Regarding `C[C@H]1CNC(=O)c2c(C(=O)Nc3ccc(CNC(=O)OC(C)(C)C)cc3)ncn21` [MLS003126425-01], the “Burkin Assay in Myoblasts, value relative to DMSO” value in assay [1] (0.5 uM) is 1.146; in assay [1] (1 uM), 1.1398; in assay [1] (5 uM), 1.282; in assay [1] (10 uM) it was 1.254; in assay [1] (20 uM), 1.13; in assay [1] (40 uM) it was 0.4401. The “Burkin Assay in Myotubes (signal relative to DMSO)” value amounted to 1.104 in assay [2] (0.5 uM); 1.203 in assay [2] (1 uM); 1.422 in assay [2] (5 uM); 1.6782 in assay [2] (10 uM); 0.7372 in assay [2] (20 uM); 0.5208 in assay [2] (40 uM). Moreover, the “CMV-LACZ in Myotubes (β-galactosidase activity relative to DMSO)” value in assay [3] (5 uM) worked out at 1.354; in assay [3] (10 uM) it was 0.8902; in assay [3] (20 uM), 0.743; in assay [3] (40 uM) it was 0.7123.
As for `CCCCNS(=O)(=O)c1ccc2nc(-c3cccnc3)cc(C(=O)NCCOC)c2c1` [MLS000673766-01], the “Burkin Assay in Myoblasts, value relative to DMSO” value in assay [1] (0.5 uM) worked out at 1.02; in assay [1] (1 uM), 1.061; in assay [1] (5 uM) it was 0.928; in assay [1] (10 uM), 1.0253; in assay [1] (20 uM), 0.91; in assay [1] (40 uM), 0.9919. Further, the “Burkin Assay in Myotubes (signal relative to DMSO)” value in assay [2] (0.5 uM) is recorded as 0.968; in assay [2] (1 uM), 0.9862; in assay [2] (5 uM), 0.896; in assay [2] (10 uM), 0.9276; in assay [2] (20 uM), 0.8272; in assay [2] (40 uM), 0.8717. The “CMV-LACZ in Myotubes, signal relative to DMSO” value was determined as 0.9847 in assay [3] (5 uM), 0.9632 in assay [3] (10 uM), 1.11 in assay [3] (20 uM) and 1.04 in assay [3] (40 uM).
As to `CC(=O)Nc1nonc1-c1nc2ccccc2n1CCC(C)C` [MLS000085522-01], the “Burkin Assay in Myoblasts, signal relative to DMSO” value in assay [1] (0.5 uM) is 0.9927; in assay [1] (1 uM), 0.872; in assay [1] (5 uM), 1.118; in assay [1] (10 uM), 0.9531; in assay [1] (20 uM), 0.9728; in assay [1] (40 uM), 0.7481. Besides, the “Burkin Assay in Myotubes, α7 integrin LacZ reporter signal relative to DMSO” value in assay [2] (0.5 uM) worked out at 0.9622; in assay [2] (1 uM), 0.8415; in assay [2] (5 uM), 0.872; in assay [2] (10 uM), 0.9249; in assay [2] (20 uM), 1.029; in assay [2] (40 uM), 0.556. The “CMV-LACZ in Myotubes, signal relative to DMSO” value was 1.092 in assay [3] (5 uM), 0.9804 in assay [3] (10 uM), 0.7733 in assay [3] (20 uM) and 0.9509 in assay [3] (40 uM).
On to `COc1ccc(S(=O)(=O)Nc2ccc(S(=O)(=O)Nc3nccs3)cc2)cc1` [MLS001218795-01], for which the “Burkin Assay in Myoblasts, signal relative to DMSO” value in assay [1] (0.5 uM) was determined as 1.024; in assay [1] (1 uM), 0.9596; in assay [1] (5 uM) it was 0.8609; in assay [1] (10 uM), 0.9116; in assay [1] (20 uM) it was 0.9353; in assay [1] (40 uM), 0.9876. Moreover, the “Burkin Assay in Myotubes, α7 integrin LacZ reporter signal relative to DMSO” value in assay [2] (0.5 uM) is 0.9648; in assay [2] (1 uM) it was 0.9363; in assay [2] (5 uM), 0.9778; in assay [2] (10 uM), 0.9991; in assay [2] (20 uM), 0.9463; in assay [2] (40 uM), 0.9606. Also, the “CMV-LACZ in Myotubes, signal relative to DMSO” value is listed as 0.9553 in assay [3] (5 uM), 1.023 in assay [3] (10 uM), 1.2115 in assay [3] (20 uM) and 0.989 in assay [3] (40 uM).
For `NC(=O)c1cccnc1Oc1ccc(Cl)cc1Cl` [MLS000861434-01], the “Burkin Assay in Myoblasts, signal relative to DMSO” value in assay [1] (0.5 uM) is given as 0.9464; in assay [1] (1 uM), 1.028; in assay [1] (5 uM), 0.9133; in assay [1] (10 uM), 0.9772; in assay [1] (20 uM), 0.8777; in assay [1] (40 uM), 0.9322. Besides, the “Burkin Assay in Myotubes, α7 integrin LacZ reporter signal relative to DMSO” value in assay [2] (0.5 uM) came out at 0.9593; in assay [2] (1 uM), 1.066; in assay [2] (5 uM), 0.9788; in assay [2] (10 uM), 1.101; in assay [2] (20 uM), 0.8762; in assay [2] (40 uM), 1.058. The “CMV-LACZ in Myotubes, signal relative to DMSO” value in assay [3] (5 uM) is given as 0.8844; in assay [3] (10 uM), 0.8027; in assay [3] (20 uM), 0.8429; in assay [3] (40 uM) it was 0.8381.

The values are drawn from US9980943B2, “Methods of treating muscular dystrophy” (BOARD OF REGENTS OF THE NEVADA SYSTEM OF HIGHER EDUCATION, …, priority 2013, dated 2018).
